Reference: patent US5274076A, “Hydrophilic derivatives, their application to diagnosis and to therapeutics, diagnostic or therapeutic kits and immunological reagents” (Immunotech Partners, priority 1989, dated 1993)
Residues, ends and D or L forms follow the SMILES beside them. Groups on a side chain read outwards from the residue. *: point of attachment. DTPA = O=C(O)CN(CCN(CC(=O)O)CC(=O)O)CCN(CC(=O)O)CC(=O)*

Legend:
[1] = system: human melanoma cells (A375); assay: Radioimmunoscintigraphy and organ radioactivity counting of human melanoma grafted on nude mice, pretargeted with anti-melanoma anti-DTPA-indium dual specificity conjugate; assay type: in vivo; conditions: for specificity of tumour binding: A375 tumour in nude mice
Protocol: Radioimmunoscintigraphy of human melanoma grafted on to nude mice with anti-melanoma anti-DTPA indium dual specificity conjugates and N-α-DTPA-tyrosyl-N-ε-DTPA-lysine labelled with indium 111.
(§1) 3.10^6 human melanoma cells (A375) are injected subcutaneously into the abdomen of nude mice. 3 to 4 weeks later the mice develop tumours of 0.5 to 2 g. The mice are then injected with 2 to 10 μg of dual specificity conjugate prepared by chemical coupling of the F(ab)'2 fragment of a […] anti-melanoma antibody (mouse monoclonal antibody IgG1, kappa) to the reduced F(ab)'2 fragment of an anti-DTPA-indium antibody (mouse monoclonal antibody IgG1, lambda) using the heterobifunctional reagent EMCS.
(§2) Twenty four hours later, mice are injected with 10 μCi of the derivative of Example 1 labelled with indium-111. Images are then produced at selected time intervals using a Sopha Medical Gammatome 2 gamma camera equipped with a medium energy high-resolution collimator or the animals are killed and the major organs and the tumour are measured for radioactivity associated with indium-111 using a gamma counter.

[2] = system: human melanoma cells (A375); assay: Comparison of indium-111-labelled probes in the labelling of tumours in mice (tumour/organ contrast); assay type: in vivo, nude mice; conditions: for Contrast cpm/g in the tumour/cpm/g in the organ: Heart / Contrast cpm/g in the tumour/cpm/g in the organ: Kidneys / Contrast cpm/g in the tumour/cpm/g in the organ: Liver / Contrast cpm/g in the tumour/cpm/g in the organ: Lung / Contrast cpm/g in the tumour/cpm/g in the organ: Plasma / Contrast cpm/g in the tumour/cpm/g in the organ: Spleen: 3 hours after injection of the radiolabelled probe
Protocol: as §1, §2
Comparison between compound 1 labelled with indium-111 and di-(DNP-lys)-DTPA in the labelling of tumours in mice.
Experiments are carried out as in Example 5 but the mice are given indium-111-labelled di-(DNP-lys)-DTPA (derivative 1 of French Patent Application 86.13146) instead of the derivative 1 described above. Three hours after injection of the probe, the mice are dissected and the gamma radioactivity of the major organs and tumour is counted. It is observed that the tumour accumulates a dose of radioactivity equivalent to that Obtained with the two compounds of Example 1 of the present invention. However, the elimination of the excess radioactivity is substantially more rapid with the compounds of the present invention, as shown by the following table: […]

[3] = Tolerance to probes in animals; assay type: in vivo, BALB/c mice; conditions: 10 nanomoles, observed 16 days; compounds 1 and 2 complexed with non-radioactive indium
Protocol: Doses corresponding to 10 nanomoles, i.e. about 10,000 times more than the dose required for radioimmunoscintigraphy, of compounds 1 and 2 previously complexed with non-radioactive indium and compound 3 are administered to BALB/c mice. These mice are then observed for 16 days under normal breeding conditions.

[4] = indium-111 labelled, after dual specificity conjugate
[5] = radioactivity measured after 24 hours

Compound | specificity of tumour binding [1] | Contrast cpm/g in the tumour/cpm/g in the organ: Heart [2] | Contrast cpm/g in the tumour/cpm/g in the organ: Kidneys [2] | Contrast cpm/g in the tumour/cpm/g in the organ: Liver [2] | Contrast cpm/g in the tumour/cpm/g in the organ: Lung [2] | Contrast cpm/g in the tumour/cpm/g in the organ: Plasma [2] | Contrast cpm/g in the tumour/cpm/g in the organ: Spleen [2] | signs of toxicity [3] | weight gain versus control animals [3] | other results
O=C(O)CN(CCN(CC(=O)O)CC(=O)O)CCN(CC(=O)O)CC(=O)NCCCC[C@H](NC(=O)[C@H](Cc1ccc(O)cc1)NC(=O)CN(CCN(CCN(CC(=O)O)CC(=O)O)CC(=O)O)CC(=O)O)C(=O)O [Example 1, N-α-DTPA-tyrosyl-N-ε-DTPA-lysine] ({DTPA}-Tyr-Lys(DTPA)-OH) | specific | 14.9 | 3.5 | 10.8 | 8.2 | 1.7 | 12.7 | No sign of toxicity | not significantly different | tumour accumulation of radioactivity without dual specificity conjugate or with conjugate specific for another tumour antigen ([1]; control without or with irrelevant conjugate): did not accumulate significant amounts of radioactivity; time after injection at which tumours can be observed on gamma camera images ([1]; indium-111 labelled, 10 μCi, 24 h after dual specificity conjugate): Only a few minutes; non-specific accumulation of radioactivity [1, 4]: essentially limited to the kidneys; time in which a large majority of the circulating radioactivity is eliminated [1, 4]: less than 24 hours; time in which radioactivity bound to the tumour is established [1, 4]: within a few hours; time radioactivity bound to the tumour remains stable [1, 4]: at least two days; tumour/organ ratio (T/O), all organs except the kidneys [1, 5]: > 3; tumour/organ ratio (T/O), kidneys [1, 5]: 0.7
O=C(O)CN(CCN(CC(=O)O)CC(=O)O)CCN(CC(=O)O)CC(=O)NCC(=O)NCCCC[C@H](NC(=O)CNC(=O)CN(CCN(CCN(CC(=O)O)CC(=O)O)CC(=O)O)CC(=O)O)C(=O)N[C@@H](Cc1ccc(O)cc1)C(=O)O [Example 2, N-α-N-ε-di-(DTPA-glycyl)-lysyl-tyrosine] ({DTPA}-Gly-Lys([Gly-DTPA])-Tyr-OH) | – | – | – | – | – | – | – | No sign of toxicity | not significantly different | –
O=C(CCC(=O)NCC(=O)NCCCC[C@H](NC(=O)CNC(=O)CCC(=O)NCCc1cnc[nH]1)C(=O)N[C@@H](Cc1ccc(O)cc1)C(=O)O)NCCc1cnc[nH]1 [Example 3, N-α-N-ε-di-(histamine-succinyl-glycyl)-lysyl-tyrosine] | – | – | – | – | – | – | – | No sign of toxicity | not significantly different | –
DTPA [indium-111-labelled DTPA, reference compound] | little specific binding is observed | – | – | – | – | – | – | – | – | elimination/excretion of radioactivity ([1]; mouse, in vivo): excreted very rapidly
di-(DNP-lys)-DTPA [derivative of the prior art] | – | 2.1 | 1.0 | 1.3 | 0.9 | 0.2 | 1.8 | – | – | dose of radioactivity accumulated by the tumour compared with Example 1 ([2]; 3 hours after injection, indium-111 labelled): equivalent
